Converted amounts (≈) assume the structure as drawn. “And” between values parts separate entries of the source, which are not always exact repeats. Equal entries are not always repeated.
What was measured:
Experiment in all cases: ≥ marks a high value that may be exact or a test limit, other limits are often not marked, values filed in µg/mL are converted to µM
[1] = test system: Staphylococcus aureus ATCC 25923
[2] = test system: Escherichia coli ATCC 25922
[3] = test system: Acinetobacter baumannii ATCC 19606
[4] = test system: Pseudomonas aeruginosa ATCC 27853
[5] = test system: Staphylococcus epidermidis ATCC 12228
[6] = test system: Enterococcus faecalis ATCC 29212
[7] = test system: Klebsiella pneumoniae ATCC 700603
[8] = test system: Bacillus subtilis ATCC 23857
[9] = test system: Pseudomonas aeruginosa
[10] = test system: Staphylococcus aureus
[11] = test system: Escherichia coli B
[12] = test system: Bacillus subtilis 168
[13] = test system: Pseudomonas aeruginosa ATCC 9027
[14] = test system: Salmonella enterica subsp. enterica serovar Typhimurium ATCC 14028
[15] = test system: Pseudomonas aeruginosa PAO1
[16] = test system: Klebsiella pneumoniae ATCC 13883
[17] = test system: Acinetobacter baumannii
[18] = test system: Staphylococcus aureus USA 300

With CC(C)C[C@H](NC(=O)[C@H](CC(C)C)NC(=O)[C@H](CCCCN)NC(=O)[C@H](CCCCN)NC(=O)[C@H](CC(C)C)NC(=O)[C@H](CS)NC(=O)[C@H](CCCCN)NC(=O)[C@H](CC(C)C)NC(=O)[C@@H](N)Cc1ccccc1)C(N)=O [FLKCLKKLL] the MIC [1] was 57.9 µM (≈ 63.9 µg/mL), the MIC [2] was 14.5 µM (≈ 16 µg/mL) and the MIC [3] was 14.5 µM (≈ 16 µg/mL). The MIC [4] was 14.5 µM (≈ 16 µg/mL).

For C[C@@H](O)[C@H](NC(=O)[C@H](CCCCN)NC(=O)[C@H](Cc1c[nH]c2ccccc12)NC(=O)[C@H](CCCN=C(N)N)NC(=O)[C@H](CCCCN)NC(=O)[C@H](Cc1ccccc1)NC(=O)[C@H](Cc1ccccc1)NC(=O)CN)C(=O)N[C@@H](Cc1ccccc1)C(=O)N[C@@H](Cc1ccccc1)C(N)=O [GFFKRWKTFF], the MIC [1] was 16 µM (≈ 21.8 µg/mL), the MIC [5] was 4 µM (≈ 5.45 µg/mL) and the MIC [2] was 16 µM (≈ 21.8 µg/mL). For the same compound, the MIC [6] was 64 µM (≈ 87.2 µg/mL), the MIC [7] was 32 µM (≈ 43.6 µg/mL) and the MIC [8] was 16 µM (≈ 21.8 µg/mL). For the same compound, the MIC [3] was 64 µM (≈ 87.2 µg/mL) and the MIC [4] was 8 µM (≈ 10.9 µg/mL).

CC[C@H](C)[C@H](NC(=O)[C@H](Cc1cnc[nH]1)NC(=O)[C@H](CCCCN)NC(=O)[C@H](CC(C)C)NC(=O)[C@H](CC(C)C)NC(=O)[C@H](CO)NC(=O)[C@H](CCSC)NC(=O)[C@H](Cc1c[nH]c2ccccc12)NC(=O)[C@H](CCCCN)NC(=O)[C@@H](N)Cc1cnc[nH]1)C(=O)N[C@@H](CC(C)C)C(=O)N[C@@H](CCCCN)C(N)=O [HKWMSLLKHILK] was tested, and the MIC [9] was 100 µM (≈ 153 µg/mL), the MIC [10] was 38.3 µM (≈ 58.7 µg/mL) and the MIC [11] was 3.5 µM (≈ 5.37 µg/mL). The MIC [12] was 1.5 µM (≈ 2.3 µg/mL).

Compound CC[C@H](C)[C@H](NC(=O)CNC(=O)[C@H](C)NC(=O)[C@@H](NC(=O)[C@@H](NC(=O)CN)[C@@H](C)CC)[C@@H](C)CC)C(=O)NCC(=O)N[C@H](C(=O)N[C@@H](CCCCN)C(=O)N[C@H](C(=O)N[C@@H](CCCCN)C(=O)N[C@@H](CCCCN)C(N)=O)[C@@H](C)CC)[C@@H](C)CC [GIIAGIGIKIKK] has an MIC [2] of 64 µM (≈ 77.4 µg/mL) and an MIC [8] of no less than 128 µM.

Work on CC[C@H](C)[C@H](NC(=O)CN)C(=O)N[C@H](C(=O)N[C@@H](C)C(=O)NCC(=O)N[C@H](C(=O)N[C@H](C(=O)N[C@H](C(=O)N[C@@H](CCCCN)C(=O)N[C@@H](C)C(=O)N[C@@H](CCCCN)C(=O)N[C@@H](CCCCN)C(N)=O)[C@@H](C)CC)[C@@H](C)CC)[C@@H](C)CC)[C@@H](C)CC [GIIAGIIIKAKK] yielded an MIC [2] of 128 µM (≈ 157 µg/mL) and an MIC [8] of no less than 64 µM.

In the case of CC[C@H](C)[C@H](NC(=O)[C@H](CCCCN)NC(=O)[C@H](CCCCN)NC(=O)[C@H](C)NC(=O)[C@@H](NC(=O)[C@H](C)NC(=O)[C@H](C)NC(=O)[C@H](CC(C)C)NC(=O)[C@H](C)NC(=O)[C@H](CCCCN)NC(=O)[C@H](CC(C)C)NC(=O)[C@H](CC(N)=O)NC(=O)CN)C(C)C)C(=O)N[C@@H](CC(C)C)C(N)=O [GNLKALAAVAKKIL], the MIC [1] is reported as greater than 128 µM, the MIC [2] is reported as 64 µM (≈ 90.2 µg/mL) and the MIC [7] is reported as 128 µM (≈ 180 µg/mL). For the same compound, the MIC [8] was 8 µM (≈ 11.3 µg/mL) and the MIC [13] was 64 µM (≈ 90.2 µg/mL).

In the case of CC(C)C[C@H](NC(=O)[C@H](C)NC(=O)[C@H](CCCN=C(N)N)NC(=O)[C@H](CCCN=C(N)N)NC(=O)[C@H](Cc1ccccc1)NC(=O)[C@H](C)NC(=O)[C@H](Cc1c[nH]c2ccccc12)NC(=O)CNC(=O)[C@H](CCCN=C(N)N)NC(=O)[C@@H](N)CCCN=C(N)N)C(=O)N[C@@H](C)C(=O)N[C@@H](Cc1ccc(O)cc1)C(=O)NCC(=O)N[C@@H](CCCN=C(N)N)C(=O)N[C@@H](CCCN=C(N)N)C(N)=O [RRGWAFRRALAYGRR], the MIC [1] is reported as greater than 30 µM, the MIC [2] is reported as 22.2 µM and 30 µM and the MIC [14] is reported as 14.8 µM and 30 µM. The MIC [15] was greater than 30 µM, the MIC [3] was greater than 30 µM and the MIC [16] was 30 µM (≈ 56.7 µg/mL).

With CC[C@H](C)[C@H](NC(=O)[C@H](CCCCN)NC(=O)[C@H](CCCCN)NC(=O)[C@H](C)NC(=O)[C@@H](NC(=O)[C@H](C)NC(=O)CNC(=O)[C@H](CC(C)C)NC(=O)[C@H](C)NC(=O)[C@H](CCCCN)NC(=O)[C@H](CC(C)C)NC(=O)[C@H](CC(N)=O)NC(=O)[C@@H](N)CC(C)C)C(C)C)C(=O)N[C@@H](CC(C)C)C(N)=O [LNLKALGAVAKKIL] the MIC [1] was 128 µM (≈ 186 µg/mL), the MIC [2] was 32 µM (≈ 46.4 µg/mL) and the MIC [7] was 64 µM (≈ 92.9 µg/mL). The MIC [8] was no less than 32 µM and the MIC [13] was 32 µM (≈ 46.4 µg/mL).

Compound CC[C@H](C)[C@H](NC(=O)[C@H](CC(C)C)NC(=O)[C@H](Cc1cnc[nH]1)NC(=O)CNC(=O)[C@H](CC(C)C)NC(=O)[C@@H](NC(=O)[C@H](CCCCN)NC(=O)[C@@H]1CCCN1C(=O)[C@H](Cc1c[nH]c2ccccc12)NC(=O)[C@H](CCSC)NC(=O)CN)[C@@H](C)CC)C(=O)N[C@@H](CCCN=C(N)N)C(N)=O [GMWPKILGHLIR] has an MIC [9] greater than 100 µM, an MIC [10] of 75 µM (≈ 106 µg/mL) and an MIC [11] of no less than 33.3 µM. For the same compound, the MIC [12] was 3 µM (≈ 4.26 µg/mL).

CSCC[C@H](NC(=O)[C@H](Cc1cnc[nH]1)NC(=O)[C@H](C)NC(=O)[C@H](CCSC)NC(=O)[C@@H](NC(=O)[C@H](CCCCN)NC(=O)[C@@H]1CCCN1)C(C)C)C(=O)N[C@@H](CCCCN)C(N)=O [PKVMAHMK] showed an MIC [11] of no less than 100 µM and an MIC [12] of no less than 100 µM.

CSCC[C@H](NC(=O)[C@H](Cc1cnc[nH]1)NC(=O)[C@H](C)NC(=O)[C@H](CCSC)NC(=O)[C@@H](NC(=O)[C@H](CCCCN)NC(=O)[C@@H]1CCCN1C(=O)[C@@H](N)CC(C)C)C(C)C)C(=O)N[C@@H](CCCCN)C(N)=O [LPKVMAHMK] showed an MIC [9] of 100 µM (≈ 105 µg/mL), an MIC [10] of 100 µM (≈ 105 µg/mL) and an MIC [11] of no less than 100 µM. It also gave an MIC [12] of no less than 100 µM.

CC[C@H](C)[C@H](NC(=O)[C@H](CCCCN)NC(=O)[C@H](CCCCN)NC(=O)[C@H](Cc1c[nH]c2ccccc12)NC(=O)[C@H](CC(N)=O)NC(=O)[C@@H](N)C(C)C)C(=O)N[C@@H](CC(C)C)C(=O)NCC(=O)N[C@@H](CCCCN)C(=O)N[C@H](C(=O)N[C@H](C(=O)N[C@@H](CCCCN)C(=O)N[C@H](C(=O)N[C@H](C(=O)N[C@@H](CCCCN)C(=O)O)C(C)C)C(C)C)[C@@H](C)CC)[C@@H](C)CC [VNWKKILGKIIKVVK] showed an MIC [9] of 40 µM (≈ 70.7 µg/mL), an MIC [10] of 40 µM (≈ 70.7 µg/mL) and an MIC [11] of 3.5 µM (≈ 6.18 µg/mL). The MIC [12] was 1.2 µM (≈ 2.12 µg/mL).

In the case of CC[C@H](C)[C@H](NC(=O)[C@H](CCCCN)NC(=O)[C@H](CCCCN)NC(=O)[C@H](Cc1c[nH]c2ccccc12)NC(=O)[C@H](CC(N)=O)NC(=O)[C@@H](N)C(C)C)C(=O)N[C@@H](CC(C)C)C(=O)N[C@@H](CCCCN)C(=O)N[C@@H](CCCCN)C(=O)N[C@H](C(=O)N[C@H](C(=O)N[C@@H](CCCCN)C(=O)N[C@H](C(=O)N[C@@H](C)C(=O)N[C@@H](CCCCN)C(N)=O)C(C)C)[C@@H](C)CC)[C@@H](C)CC [VNWKKILKKIIKVAK], the MIC [9] is reported as 26.1 µM (≈ 47.2 µg/mL), the MIC [10] is reported as 15.6 µM (≈ 28.2 µg/mL) and the MIC [11] is reported as 0.7 µM (≈ 1.27 µg/mL). The MIC [12] was 0.7 µM (≈ 1.27 µg/mL).

CC[C@H](C)[C@H](NC(=O)[C@H](CCCN=C(N)N)NC(=O)[C@@H](NC(=O)[C@@H](NC(=O)[C@@H]1CCCN1C(=O)[C@@H](NC(=O)[C@@H](NC(=O)[C@@H](NC(=O)[C@@H]1CCCN1C(=O)CNC(=O)[C@H](Cc1ccc(O)cc1)NC(=O)[C@H](CCCCN)NC(=O)[C@H](CCCCN)NC(=O)[C@H](Cc1c[nH]c2ccccc12)NC(=O)[C@H](C)NC(=O)[C@H](CCCN=C(N)N)NC(=O)[C@H](CC(C)C)NC(=O)[C@@H](NC(=O)[C@H](CCCCN)NC(=O)[C@H](CCCN=C(N)N)NC(=O)CNC(=O)[C@H](CC(C)C)NC(=O)[C@H](CCCCN)NC(=O)[C@H](CCCN=C(N)N)NC(=O)[C@H](CC(C)C)NC(=O)CNC(=O)[C@@H](N)CCCCN)[C@@H](C)CC)[C@@H](C)CC)[C@@H](C)CC)C(C)C)[C@@H](C)CC)[C@@H](C)CC)C(=O)O [KGLRKLGRKILRAWKKYGPIIVPIIRI] was tested, and the MIC [17] was 3.14 µM (≈ 10 µg/mL) and the MIC [3] was 2.22 µM (≈ 7.07 µg/mL).

For CC[C@H](C)[C@H](NC(=O)[C@H](CCCCN)NC(=O)[C@H](CCCCN)NC(=O)[C@H](C)NC(=O)[C@@H](NC(=O)[C@H](C)NC(=O)[C@H](CC(C)C)NC(=O)[C@H](CC(C)C)NC(=O)[C@H](C)NC(=O)[C@H](CCCCN)NC(=O)[C@H](CC(C)C)NC(=O)[C@H](CC(N)=O)NC(=O)[C@@H](N)CCCCN)C(C)C)C(=O)N[C@@H](CC(C)C)C(N)=O [KNLKALLAVAKKIL], the MIC [1] was 64 µM (≈ 97.4 µg/mL), the MIC [2] was 8 µM (≈ 12.2 µg/mL) and the MIC [7] was 16 µM (≈ 24.4 µg/mL). It also gave an MIC [8] of 8 µM (≈ 12.2 µg/mL) and an MIC [13] of 8 µM (≈ 12.2 µg/mL).

CC(C)C[C@H](NC(=O)[C@H](CC(C)C)NC(=O)[C@H](CCCCN)NC(=O)CNC(=O)[C@H](CC(C)C)NC(=O)[C@H](C)NC(=O)[C@H](CCCCN)NC(=O)[C@H](CC(C)C)NC(=O)[C@H](C)NC(=O)[C@H](CO)NC(=O)[C@H](CC(C)C)NC(=O)[C@H](C)NC(=O)CN)C(N)=O [GALSALKALGKLL] showed an MIC [2] of 25 µM (≈ 31.3 µg/mL), an MIC [15] greater than 25 µM and an MIC [18] of 25 µM (≈ 31.3 µg/mL). For the same compound, the MIC [16] was 25 µM (≈ 31.3 µg/mL).
